Assay results as given in ChEMBL document CHEMBL3588798, “Non-peptide ligand binding to the formyl peptide receptor FPR2--A comparison to peptide ligand binding modes” (Bioorg Med Chem, 2015).

Tests used:
[1] = target: T1, N-formyl peptide receptor 2 (Homo sapiens, UniProt P25090); assay: Agonist activity against human FPR2 expressed in human HL60 cells by Fluo-4AM dye based intracellular Ca2+ mobilization assay; assay type: functional, cell-based, HL-60
T1 sequence (P25090 whole entry): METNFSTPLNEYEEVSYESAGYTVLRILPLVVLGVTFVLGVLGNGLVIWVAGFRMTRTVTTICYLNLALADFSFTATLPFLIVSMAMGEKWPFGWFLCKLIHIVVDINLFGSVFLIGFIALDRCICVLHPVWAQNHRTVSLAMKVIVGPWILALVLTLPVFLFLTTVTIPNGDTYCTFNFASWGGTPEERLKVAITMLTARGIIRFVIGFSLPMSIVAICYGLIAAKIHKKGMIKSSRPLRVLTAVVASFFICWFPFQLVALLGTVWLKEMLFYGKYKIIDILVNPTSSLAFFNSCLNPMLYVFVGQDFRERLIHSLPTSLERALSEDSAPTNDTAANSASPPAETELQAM

[2] = target: T1, N-formyl peptide receptor 2; assay: Agonist activity at FPR2 (unknown origin) by Fluo4 florescence based intracellular Ca2+ mobilization assay; assay type: functional, cell-based
[3] = target: T1, N-formyl peptide receptor 2; assay: Allosteric antagonist activity against FPR2 (unknown origin)
[4] = target: T1, N-formyl peptide receptor 2; assay: Antagonist activity against human FPR2 expressed in rat RBL-2H3 cells pre-treated for 15 mins before addition of WKYMVm or C1 by intracellular Ca2+ mobilization assay; assay type: functional, cell-based
[5] = target: T1, N-formyl peptide receptor 2; assay: Agonist activity at human FPR2 expressed in rat RBL-2H3 cells by intracellular Ca2+ mobilization assay; assay type: functional, cell-based
[6] = target: T1, N-formyl peptide receptor 2; assay: Antagonist activity against FPR2 (unknown origin) pre-treated for 5 mins before addition of Wpep by Fluo4 florescence based intracellular Ca2+ mobilization assay; assay type: functional, cell-based

Structure (SMILES)	EC50 [1] [µM]	also measured
COc1ccc(CCNC(=O)Nc2ccccc2)cc1	3	
COc1ccc(CCNC(=O)Nc2ccc(Cl)cc2)cc1	0.4	
COc1ccc(CCNC(=O)Nc2ccc(F)cc2)cc1	0.9	
COc1ccc(CCNC(=O)Nc2ccc(Br)cc2)cc1	0.1	
COc1ccc2[nH]c(SCC(=O)Nc3ccc(OC)c(OC)c3)nc2c1	4.7	
CCC[C@H]1CNC(=O)C(=O)N1C[C@@H]1CCCN1C[C@@H](Cc1ccc2ccccc2c1)N1C[C@@H](Cc2ccc(O)cc2)N(CC2CCCCC2)C(=O)C1=O		EC50 [2]: 0.14 µM
CCOC(=O)C1CCN(C(=O)[C@H](Cc2c[nH]c3ccccc23)NC(=O)Nc2ccc(Br)cc2)CC1	0.13	
O=C(Nc1ccc(Br)cc1)N[C@@H](Cc1ccccc1)C(=O)N1CCCC1	0.14	
O=C(Nc1ccc(Br)cc1)N[C@@H](Cc1ccccc1)C(=O)N1CCCCC1	0.04	
O=C(Nc1ccc(Cl)cc1)N[C@@H](Cc1ccccc1)C(=O)N1CCCCC1	0.05	
CSc1ccc(NC(=O)N[C@@H](Cc2ccccc2)C(=O)N2CCCCC2)cc1	0.3	
CCCCCCCCCCCCCCCC(=O)N[C@@H](CCCCN)C(=O)N(CCC(=O)N[C@@H](CCCCN)C(=O)N(CCC(=O)N[C@@H](CCCCN)C(=O)N(CCC(=O)N[C@@H](CCCCN)C(=O)N(CCC(=O)N[C@@H](CCCCN)C(=O)N(CCC(=O)N[C@@H](CCCCN)C(=O)N(CCC(N)=O)[C@@H](C)c1ccccc1)[C@@H](C)c1ccccc1)[C@@H](C)c1ccccc1)[C@@H](C)c1ccccc1)[C@@H](C)c1ccccc1)[C@@H](C)c1ccccc1		IC50 [3]: 0.05 µM
O=C(Nc1ccc(Br)cc1)N[C@@H](Cc1ccccc1)C(=O)N1CCc2ccccc21	0.25	
COc1ccc2[nH]c(SCC(=O)Nc3ccccc3Br)nc2c1	4.03	
COc1ccc2[nH]c(SCC(=O)Nc3ccc(C(C)=O)cc3)nc2c1	6	
CCc1ccc(NC(=O)CSc2nc3cc(OC)ccc3[nH]2)cc1	3.2	
COC(=O)Nc1cccc(NC(=O)CSc2nc3cc(OC)ccc3[nH]2)c1	7.3	
CCOc1ccc2[nH]c(SCC(=O)Nc3ccccc3SC)nc2c1	8	
COc1ccc2[nH]c(SCC(=O)Nc3ccccc3Cl)nc2c1	10	
CCCCOc1ccc(C(=O)NN2Cc3ccccc3NC2c2ccc(O)cc2)cc1 (stereo not drawn)		IC50 [4]: 6.65 µM
CCCCOc1ccc(C(=O)NN2Cc3ccccc3NC2c2ccc(C)cc2)cc1 (stereo not drawn)		IC50 [4]: 0.17 µM; EC50 [5]: 1.48 µM
CCCCOc1ccc(C(=O)NN2Cc3ccccc3NC2c2ccc(OC)cc2)cc1 (stereo not drawn)		IC50 [4]: 0.09 µM; EC50 [5]: 0.47 µM
CC(C)[C@H]1CNC(=O)C(=O)N1C[C@@H]1CCCN1C[C@@H](Cc1ccc2ccccc2c1)N1C[C@@H](Cc2ccc(O)cc2)N(CC2CCCCC2)C(=O)C1=O		IC50 [6]: 0.08 µM

Further lines, with some results ahead:

EC50 [1] [µM]	Structure (SMILES)	also measured
0.004	O=C(Nc1ccc(Br)cc1)N[C@@H](Cc1ccccc1)C(=O)NN1CCCCNC1=O	
0.007	CCOC(=O)C1CCCN(C(=O)[C@H](Cc2ccccc2)NC(=O)Nc2ccc(Br)cc2)C1 (stereo partly drawn)	
0.16	CCOC(=O)C1CCN(C(=O)[C@H](Cc2ccccc2)NC(=O)Nc2ccc(Br)cc2)CC1	
